# Patent US20130252890A1, “6,7-DIHYDRO-5H-BENZO[7]ANNULENE DERIVATIVES, PROCESS FOR PREPARATION THEREOF, PHARMACEUTICAL PREPARATIONS COMPRISING THEM, AND THE USE THEREOF FOR PRODUCTION OF MEDICAMENTS” (BAYER INTELLECTUAL PROPERTY GMBH, priority 2010, published 2013)
# Where a name gives a salt, the structure may show the parent alone.
# How the values were obtained:
# [1] = test system: ovarian estradiol synthesis; test: Stimulation of ovarian oestrogen synthesis (HPG axis) in intact adult rats; format: in vivo, rat; conditions: hormonally intact adult rats, daily for 10 days; quotient of peripheral estradiol values after and before treatment
# From the text: The clinical use both of pure anti-oestrogens and of various SERMs for the treatment of premenopausal women is limited by their property of stimulating the ovaries through activation of the hypothalamic-pituitary-gonadal axis (HPG axis), which leads to the increase in peripheral estradiol levels (Palomba, S., Orio, F., Jr., Morelli, M., Russo, T., Pellicano, M., Zupi, E., Lombardi, G., Nappi, C., Panici, P. L., and Zullo, F. (2002). Raloxifene administration in premenopausal women with uterine leiomyomas: a pilot study. J Clin Endocrinol Metab 87, 3603-3608). This stimulation of the HPG axis is associated with penetration of the blood-brain barrier and penetration of the brain. To investigate the ovary-stimulating properties of the claimed pharmacological compounds, hormonally intact adult rats were treated with the substances daily for a period of 10 days. The study end point is the quotient of peripheral estradiol values after and before treatment.
# oestrogen receptor (ER) = molecular target: T1, oestrogen receptor (ER) (Homo sapiens, UniProt P03372); test: Anti-oestrogenic action in MVLN cells (inhibition of estradiol-induced luciferase); format: cell-based; conditions: inhibition of estradiol-induced luciferase signal, value of Ex. 44 is a mean value, read-out: Antioestrogenic action in vitro: MVLN transactivation antagonism IC50
# T1 construct: These MVLN cells express, along with the functional oestrogen receptor (ER), a reporter construct; endogenous in cells; host or cells: MVLN cells (MCF7 derivative carrying a luciferase reporter construct)
# T1 sequence (P03372 1-595): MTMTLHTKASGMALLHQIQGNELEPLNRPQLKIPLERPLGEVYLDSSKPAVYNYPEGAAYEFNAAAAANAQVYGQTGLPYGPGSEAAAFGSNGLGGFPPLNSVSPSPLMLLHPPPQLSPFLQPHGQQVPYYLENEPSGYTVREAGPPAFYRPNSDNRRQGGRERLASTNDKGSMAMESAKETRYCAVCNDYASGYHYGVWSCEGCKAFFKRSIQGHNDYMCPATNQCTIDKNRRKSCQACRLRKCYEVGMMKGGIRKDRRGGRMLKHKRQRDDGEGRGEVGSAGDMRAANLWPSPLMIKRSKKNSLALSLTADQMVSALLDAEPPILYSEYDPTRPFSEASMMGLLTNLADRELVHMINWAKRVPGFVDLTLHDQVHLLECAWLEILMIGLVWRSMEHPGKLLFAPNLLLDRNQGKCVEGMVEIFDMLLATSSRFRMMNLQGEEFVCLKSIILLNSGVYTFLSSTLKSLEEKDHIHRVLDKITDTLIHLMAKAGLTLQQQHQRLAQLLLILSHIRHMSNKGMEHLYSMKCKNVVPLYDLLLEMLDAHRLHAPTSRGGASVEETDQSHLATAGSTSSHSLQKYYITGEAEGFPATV
# How it was run: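 Inhibition of estradiol-driven luciferase expression was measured with compounds co-applied alongside oestrogen. Reporter system: MCF7-derived MVLN cells expressing endogenous functional ER and an ER-responsive luciferase construct.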
# uterus [2] = test: Anti-uterus growth test in the adult rat; conditions: sc, 72 h; ovariectomized adult rat, s.c. 3 days with 1.5 μg/kg/day 17β-estradiol; inhibition of uterus growth; value of 44 is a mean of two measurements; read-out: anti-oestrogenic activity in vivo in % at a dose of 0.3 mg/kg (rat)
# From the text: The uterus of oestrogen-substituted rats can be used as a test model for detecting a direct action of substances with anti-oestrogenic properties. The parameter of oestrogenic action is estradiol-induced uterus growth in rats, which is inhibited by simultaneous administration of a substance with anti-oestrogenic action. The experimental animals (n=5-6 animals/group) were ovariectomized before the start of the test, to rule out the influence of endogenous oestrogens. After a phase of 6 to 10 days, the test substances are administered s.c. on 3 consecutive days (d1-d3) in combination with a substitution dose of 1.5 μg/kg/day 17β-estradiol. 17β-estradiol alone serves as positive control, and the excipients serve as negative control. On day 4 (d4) the animals are killed, and the uteri and vaginae are removed and weighed. The organ weights are converted to mg/100 g body weight, then the mean value and the standard deviation are calculated for each dosage. The inhibition of uterus growth induced by 17β-estradiol is shown as percentage inhibition.
# uterus [3] = test: Oestrogenic action - uterus growth test in the infantile rat; format: in vivo; conditions: sc, 72 h, s.c. 3 days, relative to E2 0.3 μg/animal, read-out: maximum uterotropic action (% estradiol action) in the dose range from 0.03 to 3 mg/kg; for Emax at 0.3 mg/kg: maximum at dose 0.3 mg/kg
# Procedure: Both the uterus and the vagina show a weight increase that is dependent on oestrogenic efficacy, in infantile animals when they are treated with a substance with oestrogenic action. In the uterus, under oestrogenic action there is also proliferation and increase in height of the luminal epithelium.
# Immature, intact rats (n=5-6 animals/group; body weight 40-50 g) receive the substance s.c. for 3 days (d1-d3). On day 4 (d4) the animals are killed with CO2. The uteri are removed and weighed. For histological assessment, a piece of uterus, preferably a uterine horn, is fixed in formaldehyde and embedded in paraffin. The stimulation of the organ weights (relative to mg/100 g body weight) and the height of the epithelium are shown as percentage stimulation in comparison with the reference compound 17β-estradiol (E2). (Substitution dose of E2 0.3 μg/animal).
# [4] = test system: peripheral cholesterol level; test: Hepatic oestrogenicity in the ovariectomized adult rat (plasma cholesterol); format: in vivo; conditions: ovariectomized adult rats, s.c. daily for 6 days; cholesterol day 0 vs day 8
# From the text: Substances with oestrogenic action influence the synthesis of various plasma proteins, of coagulation factors and fibrinolytic factors in the liver. […] In the present investigations, lowering of the peripheral cholesterol level is used as a surrogate parameter for analysis of the hepatic oestrogenicity of the claimed pharmacological compounds. Adult ovariectomized rats were, after a pause of 6-10 days, treated daily for 6 days with the substances by subcutaneous application. The plasma cholesterol levels were determined and compared before and after the respective treatment.
SMILES,Stimulation of ovarian oestrogen synthesis: factor at a dose of 3 mg/kg rat [1],IC50 (oestrogen receptor (ER)),inhibition in vivo at 0.3 mg/kg (uterus [2]),Emax at 0.3 mg/kg (uterus [3]),Emax at 0.03 mg/kg (uterus [3]; maximum at dose 0.03 mg/kg),hepatic oestrogenicity: lowering of the peripheral cholesterol level [4],Emax at 0.1 mg/kg (uterus [3]; maximum at dose 0.1 mg/kg)
"CN(CCCCCCC1=C(c2ccc(F)cc2)CCCc2cc(O)ccc21)CCCS(=O)(=O)CC1CCC(F)(F)CC1 [Example 123, 9-{6-[(3-{[(4,4-difluorocyclohexyl)methyl]sulphonyl}propyl)(methyl)amino]hexyl}-8-(4-fluorophenyl)-6,7-dihydro-5H-benzo[7]annulen-3-ol]",2.5,13 nM,56%,8%,,,
"CN(CCCCCCC1=C(c2ccc(F)cc2)CCCc2cc(O)ccc21)CCCS(=O)(=O)CCCCC(F)(F)F [Example 80, 8-(4-Fluorophenyl)-9-[6-(methyl{3-[(5,5,5-trifluoropentyl)sulphonyl]propyl}amino)hexyl]-6,7-dihydro-5H-benzo[7]annulen-3-ol]",2.3,8 nM,59%,,,,
"CN(CCCCCCC1=C(c2ccc(F)cc2)CCCc2cc(O)ccc21)CCC[S+]([O-])CCCC(F)(F)C(F)(F)F (stereo not drawn) [Example 118, 8-(4-fluorophenyl)-9-[6-(methyl{3-[(4,4,5,5,5-pentafluoropentyl)sulphinyl]propyl}amino)hexyl]-6,7-dihydro-5H-benzo[7]annulen-3-ol]",2.3,9 nM,78%,,8%,only observed at high dosage,
"CN(CCCCCCC1=C(c2ccc(F)cc2)CCCc2cc(O)ccc21)CCCCS(=O)(=O)CCC(F)(F)F [Example 51, 8-(4-Fluorophenyl)-9-[6-(methyl{4-[(3,3,3-trifluoropropyl)sulphonyl]butyl}amino)hexyl]-6,7-dihydro-5H-benzo[7]annulen-3-ol]",,30 nM,59%,,,,22%
"CN(CCCCCCC1=C(c2cccc(F)c2)CCCc2cc(O)ccc21)CCCCS(=O)(=O)CCCC(F)(F)C(F)(F)F [Example 124, 8-(3-fluorophenyl)-9-[6-(methyl{4-[(4,4,5,5,5-pentafluoropentyl)sulphonyl]butyl}amino)hexyl]-6,7-dihydro-5H-benzo[7]annulen-3-ol]",2.0,13 nM,67%,,,,
"O=C(c1ccc(OCCN2CCCCC2)cc1)c1c(-c2ccc(O)cc2)sc2cc(O)ccc12 [Raloxifene hydrochloride, Raloxifene, reference compound]",3.1,,,,,,
"CN(CCCCCCC1=C(c2ccc(F)cc2)CCCc2cc(O)ccc21)CCCCS(=O)(=O)CCCC(F)(F)C(F)(F)F [Example 114, 8-(4-fluorophenyl)-9-[6-(methyl{4-[(4,4,5,5,5-pentafluoropentyl)sulphonyl]butyl}amino)hexyl]-6,7-dihydro-5H-benzo[7]annulen-3-ol]",1.4,10 nM,49%,,,,
"CN(CCCCCCC1=C(c2cc(F)cc(F)c2)CCCc2cc(O)ccc21)CCCCS(=O)(=O)CCC(F)(F)F [Example 46, 8-(3,5-Difluorophenyl)-9-[6-(methyl{4-[(3,3,3-trifluoropropyl)sulphonyl]butyl}amino)hexyl]-6,7-dihydro-5H-benzo[7]annulen-3-ol]",,36 nM,30%,,,,
"CN(CCCCCCC1=C(c2ccc(F)cc2)CCCc2cc(O)ccc21)CCCS(=O)(=O)CCCC(F)(F)F [Example 117, 8-(4-fluorophenyl)-9-[6-(methyl{3-[(4,4,4-trifluorobutyl)sulphonyl]propyl}amino)hexyl]-6,7-dihydro-5H-benzo[7]annulen-3-ol]",2.1,18 nM,65%,18%,,,
"CN(CCCCCCC1=C(c2ccc(F)cc2)CCCc2cc(O)ccc21)CCCCS(=O)(=O)C1CCC(F)(F)CC1 [Example 122, 9-{6-[{4-[(4,4-difluorocyclohexyl)sulphonyl]butyl}(methyl)amino]hexyl}-8-(4-fluorophenyl)-6,7-dihydro-5H-benzo[7]annulen-3-ol]",2.4,6 nM,52%,7%,,,
"CN(CCCCCCC1=C(c2cccc(F)c2)CCCc2cc(O)ccc21)CCCS(=O)(=O)CCCC(F)(F)C(F)(F)F [Example 125, 8-(3-fluorophenyl)-9-[6-(methyl{3-[(4,4,5,5,5-pentafluoropentyl)sulphonyl]propyl}amino)hexyl]-6,7-dihydro-5H-benzo[7]annulen-3-ol]",,13 nM,75%,,,,
"CN(CCCCCCC1=C(c2cc(F)cc(F)c2)CCCc2cc(O)ccc21)CCCS(=O)(=O)CCCC(F)(F)F [Example 7, 8-(3,5-Difluorophenyl)-9-[6-(methyl{3-[(4,4,4-trifluorobutyl)sulphonyl]propyl}amino)hexyl]-6,7-dihydro-5H-benzo[7]annulen-3-ol]",,24 nM,23%,,,,
